Our source for the EC50 values is patent US20170121344A1 (Siga Technologies, Inc., priority 2009, published 2017).

What is called EC50 is the midpoint of the concentration-response curve.

One assay concerns Dengue-2 (Strain New Guinea C). Description: Viral yield assay against Dengue-2 in Vero cells. The note with it: Dengue virus, DENV2, Vero, 48 h, read-out: Activity (EC50 in μM) DENV-2. The class given is cell-based, Dengue virus. The essentials: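 Vero cells were infected with dengue-2 at MOI 0.1, treated with compound (DMSO control), and kept at 37° C. They were harvested 48 hours post infection and yield was titered on Vero cells. EC50 came from the yield curve, and the other serotypes were run in a similar way.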
Regarding `Nc1c(C(=O)Nc2ccc3c(c2)OCO3)sc2nc(-c3ccc(F)cc3)ccc12` [Compound 608, 3-amino-N-(1,3-benzodioxol-5-yl)-6-(4-fluorophenyl)thieno[2,3-b]pyridine-2-carboxamide], the EC50 is less than 5 µM. For `COc1ccc(NC(=O)c2sc3nc(-c4ccc(F)cc4)ccc3c2N)cc1OC` [Compound 619, 3-amino-N-(3,4-dimethoxyphenyl)-6-(4-fluorophenyl)thieno[2,3-b]pyridine-2-carboxamide], the EC50 was less than 5 µM.

The same assay, now with this note: Dengue virus, DENV2; viral yield assay, Vero cells, MOI 0.1, 48 hours post infection; read-out: Activity (EC50 in μM) DENV-2.
In the case of `Cc1ccc(C)c(NC(=O)c2sc3nc(-c4ccc5c(c4)OCO5)ccc3c2N)c1` [Compound 588, 3-amino-6-(1,3-benzodioxol-5-yl)-N-(2,5-dimethylphenyl)thieno[2,3-b]pyridine-2-carboxamide], the EC50 was less than 5 µM. As for `COc1ccc(Cl)c(NC(=O)c2sc3nc(-c4ccc5c(c4)OCO5)ccc3c2N)c1` [Compound 589, 3-amino-6-(1,3-benzodioxol-5-yl)-N-(2-chloro-5-methoxy-phenyl)thieno[2,3-b] pyridine-2-carboxamide], the EC50 is less than 5 µM.

For `Cc1cc(NC(=O)c2sc3nc(-c4ccc5c(c4)OCO5)ccc3c2N)ccc1Br` [Compound 590, 3-amino-6-(1,3-benzodioxol-5-yl)-N-(4-bromo-3-methyl-phenyl)thieno[2,3-b] pyridine-2-carboxamide], the EC50 is less than 5 µM. Still for that read-out and setting: to `CCc1cccc(NC(=O)c2sc3nc(-c4ccc5c(c4)OCO5)ccc3c2N)c1` [Compound 592, 3-amino-6-(1,3-benzodioxol-5-yl)-N-(3-ethylphenyl)thieno[2,3-b]pyridine-2-carboxamide] belongs less than 5 µM; to `Cc1cc(F)ccc1NC(=O)c1sc2nc(-c3ccc4c(c3)OCO4)ccc2c1N` [Compound 593, 3-amino-6-(1,3-benzodioxol-5-yl)-N-(4-fluoro-2-methyl-phenyl)thieno[2,3-b] pyridine-2-carboxamide], less than 5 µM. `COc1ccc(Cl)cc1NC(=O)c1sc2nc(-c3ccc4c(c3)OCO4)ccc2c1N` [Compound 594, 3-amio-6-(1,3-benzodioxol-5-yl)-N-(5-chloro-2-methoxy-phenyl)thieno[2,3-b] pyridine-2-carboxamide]: the EC50 was less than 5 µM. The same measure, in the same setting: to `Nc1c(C(=O)Nc2ccc(F)c(Cl)c2)sc2nc(-c3ccc4c(c3)OCO4)ccc12` [Compound 595, 3-amino-6-(1,3-benzodioxol-5-yl)-N-(3-chloro-4-fluoro-phenyl)thieno[2,3-b] pyridine-2-carboxamide] belongs less than 5 µM; to `Nc1c(C(=O)Nc2ccc(Cl)cc2)sc2nc(-c3ccc4c(c3)OCO4)ccc12` [Compound 601, 3-amino-6-(1,3-benzodioxol-5-yl)-N-(4-chlorophenyl)thieno[2,3-b]pyridine-2-carboxamide], less than 5 µM; to `Cc1c(Cl)cccc1NC(=O)c1sc2nc(-c3ccc(F)cc3)ccc2c1N` [Compound 604, 3-amino-N-(3-chloro-2-methyl-phenyl)-6-(4-fluorophenyl)thieno[2,3-b]pyridine-2-carboxamide], less than 5 µM. Still for that read-out and setting: to `Nc1c(C(=O)Nc2cc(Cl)ccc2Cl)sc2nc(-c3ccc(F)cc3)ccc12` [Compound 605, 3-amino-N-(2,5-dichlorophenyl)-6-(4-fluorophenyl)thieno[2,3-b]pyridine-2-carboxamide] belongs less than 5 µM; to `CCOc1ccccc1NC(=O)c1sc2nc(-c3ccc(F)cc3)ccc2c1N` [Compound 606, 3-amino-N-(2-ethoxyphenyl)-6-(4-fluorophenyl)thieno[2,3-b]pyridine-2-carboxamide], less than 5 µM; to `Cc1ccc(NC(=O)c2sc3nc(-c4ccc(F)cc4)ccc3c2N)cc1C` [Compound 607, 3-amino-N-(3,4-dimethylphenyl)-6-(4-fluorophenyl)thieno[2,3-b]pyridine-2-carboxamide], less than 5 µM. Turning to `Cc1ccccc1NC(=O)c1sc2nc(-c3ccc(F)cc3)ccc2c1N` [Compound 610, 3-amino-6-(4-fluorophenyl)-N-(o-tolyl) thieno[2,3-b]pyridine-2-carboxamide], the EC50 was less than 5 µM. Turning to `CCOc1cccc(NC(=O)c2sc3nc(-c4ccc(F)cc4)ccc3c2N)c1` [Compound 611, 3-amino-N-(3-ethoxyphenyl)-6-(4-fluorophenyl)thieno[2,3-b]pyridine-2-carboxamide], the EC50 was less than 5 µM. Same read-out and setting: to `Nc1c(C(=O)Nc2ccc(F)c(Cl)c2)sc2nc(-c3ccc(F)cc3)ccc12` [Compound 613, 3-amino-N-(3-chloro-4-fluoro-phenyl)-6-(4-fluorophenyl)thieno[2,3-b]pyridine-2-carboxamide] belongs less than 5 µM; to `Cc1ccc(NC(=O)c2sc3nc(-c4ccc(F)cc4)ccc3c2N)c(C)c1` [Compound 614, 3-amino-N-(2,4-dimethylphenyl)-6-(4-fluorophenyl)thieno[2,3-b]pyridine-2-carboxamide], less than 5 µM. Still for that read-out and setting: to `Cc1ccc(Cl)cc1NC(=O)c1sc2nc(-c3ccc(F)cc3)ccc2c1N` [Compound 621, 3-amino-N-(5-chloro-2-methyl-phenyl)-6-(4-fluorophenyl)thieno[2,3-b]pyridine-2-carboxamide] belongs less than 5 µM; to `Nc1c(C(=O)Nc2cc(Cl)cc(Cl)c2)sc2nc(-c3ccc(F)cc3)ccc12` [Compound 622, 3-amino-N-(3,5-dichlorophenyl)-6-(4-fluorophenyl)thieno[2,3-b]pyridine-2-carboxamide], less than 5 µM; to `Cc1ccc(F)cc1NC(=O)c1sc2nc(-c3ccc(F)cc3)ccc2c1N` [Compound 623, 3-amino-N-(5-fluoro-2-methyl-phenyl)-6-(4-fluorophneyl)thieno[2,3-b]pyridine-2-carboxamide], less than 5 µM.

For the compound `COc1ccc(NC(=O)c2sc3nc(-c4ccc(F)cc4)ccc3c2N)c(C)c1` [Compound 624, 3-amio-6-(4-fluorophenyl)-N-(4-methoxy-2-methyl-phenyl)thieno[2,3-b] pyridine-2-carboxamide], the EC50 is less than 5 µM. Same read-out and setting: to `COc1cccc(-c2ccc3c(N)c(C(=O)Nc4cc(C)ccc4C)sc3n2)c1` [Compound 626, 3-amino-N-(2,5-dimethylphenyl)-6-(3-methoxyphenyl)thieno[2,3-b]pyridine-2-carboxamide] belongs less than 5 µM; to `COc1cccc(-c2ccc3c(N)c(C(=O)Nc4ccc(C)cc4Br)sc3n2)c1` [Compound 627, 3-amino-N-(2-bromo-4-methyl-phenyl)-6-(3-methoxyphenyl)thieno[2,3-b] pyridine-2-carboxamide], less than 5 µM; to `Nc1c(C(=O)Nc2cc(F)ccc2F)sc2nc(-c3cc(Cl)ccc3Cl)ccc12` [Compound 629, 3-amino-6-(2,5-dichlorophenyl)-N-(2,5-difluorophenyl)thieno[2,3-b]pyridine-2-carboxamide], less than 5 µM. On to `Cc1cccc(NC(=O)c2sc3nc(-c4ccc(Cl)cc4)ccc3c2N)c1` [Compound 632, 3-amino-6-(4-chlorophenyl)-N-(m-tolyl)thieno[2,3-b]pyridine-2-carboxamide], for which the EC50 is less than 5 µM. On the same count and under the same terms, for `COc1ccc(-c2ccc3c(N)c(C(=O)Nc4cccc(C)c4)sc3n2)cc1OC` [Compound 633, 3-amino-6-(3,4-dimethoxyphenyl)-N-(m-tolyl)thieno[2,3-b]pyridine-2-carboxamide] the value was less than 5 µM; for `COc1ccc(-c2ccc3c(N)c(C(=O)Nc4ccccc4)sc3n2)cc1OC` [Compound 634, 3-amino-6-(3,4-dimethoxyphenyl)-N-phenyl-thieno[2,3-b]pyridine-2-carboxamide], less than 5 µM; for `Cc1ccc(-c2ccc3c(N)c(C(=O)Nc4ccccc4C)sc3n2)cc1` [Compound 637, 3-amino-N-(o-tolyl)-6-(p-tolyl)thieno [2,3-b]pyridine-2-carboxamide], less than 5 µM. On the same count and under the same terms, to `Cc1ccc(-c2ccc3c(N)c(C(=O)Nc4ccccc4[N+](=O)[O-])sc3n2)cc1` [Compound 639, 3-amino-N-(2-nitrophenyl)-6-(p-tolyl) thieno[2,3-b]pyridine-2-carboxamide] belongs less than 5 µM; to `Cc1ccc(-c2ccc3c(N)c(C(=O)Nc4ccc(F)cc4)sc3n2)cc1` [Compound 640, 3-amino-N-(4-fluorophenyl)-6-(p-tolyl) thieno[2,3-b]pyridine-2-carboxamide], less than 5 µM.

Consider `COc1ccc(Cl)cc1NC(=O)c1sc2nc(-c3ccc(C)cc3)ccc2c1N` [Compound 641, 3-amino-N-(5-chloro-2-methoxy-phenyl)-6-(p-tolyl)thieno[2,3-b]pyridine-2-carboxamide], for which the EC50 was less than 5 µM. Same read-out and setting: for `Cc1ccc(-c2ccc3c(N)c(C(=O)Nc4ccccc4)sc3n2)cc1` [Compound 642, 3-amino-N-phenyl-6-(p-tolyl)thieno[2,3-b]pyridine-2-carboxamide] the value was less than 5 µM; for `COc1ccccc1NC(=O)c1sc2nc(-c3ccc(C)cc3)ccc2c1N` [Compound 643, 3-amino-N-(2-methoxyphenyl)-6-(p-tolyl)thieno[2,3-b]pyridine-2-carboxamide], less than 5 µM.

As to `Cc1ccc(-c2ccc3c(N)c(C(=O)Nc4cccc(C)c4)sc3n2)cc1` [Compound 644, 3-amino-N-(m-tolyl)-6-(p-tolyl)thieno[2,3-b]pyridine-2-carboxamide], the EC50 was less than 5 µM. Still for that read-out and setting: for `CCOc1ccccc1NC(=O)c1sc2nc(-c3ccc(C)cc3)ccc2c1N` [Compound 647, 3-amino-N-(2-ethoxyphenyl)-6-(p-tolyl)thieno[2,3-b]pyridine-2-carboxamide] the value was less than 5 µM. For the compound `Cc1ccc(-c2ccc3c(N)c(C(=O)Nc4ccccc4F)sc3n2)cc1` [Compound 649, 3-amino-N-(2-fluorophenyl)-6-(p-tolyl) thieno[2,3-b]pyridine-2-carboxamide], the concentration for a half-maximal effect (EC50) is less than 5 µM. Still for that read-out and setting: to `Nc1c(C(=O)Nc2ccncc2)sc2nc(-c3cccc(C(F)(F)F)c3)ccc12` [Compound 653, 3-amino-N-(4-pyridyl)-6-[3-(trifluoromethyl)phenyl]thieno[2,3-b] pyridine-2-carboxamide] belongs less than 5 µM.
